The values that follow come from patent US20240009204A1 (Starton Therapeutics, Inc., priority 2020, published 2024).

Marks after values point to notes of the source that are not given here.

Series [1] deals with healthy female volunteers. Nature of the series: Phase 1 study: antiemetic effect of oral olanzapine doses after apomorphine challenge. Conditions: for Nausea Score 1-120 min. / Nausea Score 1-120 min. (severity in words) / Retching (incidence) / Vomiting (incidence): apomorphine challenge day 8; for Nausea Score 1-120 min.: 1=no nausea, 10=severe nausea. The format is in vivo, human. The method, then: Twenty-four healthy female volunteers were enrolled. Four active-treatment groups and a cohort of placebo-treated subjects were evaluated.
Subjects were administered study drug once daily for 8 days. During this period, subjects maintained a study diary of their side effects. The subject diary was used to collect on a daily basis any adverse events including an assessment of the presence and/or intensity of sedation on a numeric scale where 1=no sedation and 10=excessive sedation.
On the 8th day, subjects were administered apomorphine at a dose of 0.05 mg/kg and assessed over 6 hours. During this period, subjects were asked to record episodes of nausea on a numeric scale every 15 minutes for the duration of assessment. The intensity of nausea was captured using a 1-10 rating scale where 1=no nausea and 10=severe nausea. Emesis intensity was also captured where 1=no emesis and 10=severe emesis. Episodes of retching or emesis were collected and measured for the absolute number of retches or vomits during the collection period and documented for the time of the specific event following the administration of the apomorphine.

The next series can be described thus: clinical. As to conditions: human, plasma, po.
The mark [2] stands for this setting: oral, statistical integration of nausea scores and incidence of retching and vomiting.

`Cc1cc2c(s1)Nc1ccccc1N=C2N1CCN(C)CC1` [olanzapine, 2-methyl-10-(4-methyl-1-piperazinyl)-4H-thieno-[2,3-b][1.5]benzo-diazepine]: the “Nausea severity scores 0-120 min following apomorphine challenge, versus placebo” value is recorded as “not significantly different than placebo” in series [1] (2 mg and 8 mg doses); “significantly different than placebo” in series [1] (4 mg and 6 mg steady state doses, p<0.05). For the same compound, the “maximum intensity of nausea, compared between doses” value in series [1] (between the 4 mg, 6 mg and 8 mg dose) is “no different”. The “Nausea Score 1-120 min.” value in series [1] (oral 2 mg a day for 8 days) is recorded as 6**; in series [1] (oral 4 mg a day for 8 days), 3.4 #; in series [1] (oral 6 mg a day for 8 days) it was 3.7 #; in series [1] (oral 8 mg a day for 8 days), 5**. For the same compound, the “Nausea Score 1-120 min. (severity in words)” value is “Moderate” in series [1] (oral 2 mg a day), “Mild” in series [1] (oral 4 mg a day), “Mild” in series [1] (oral 6 mg a day) and “Mild” in series [1] (oral 8 mg a day). In addition, the “Retching (incidence)” value came to 40% in series [1] (oral 2 mg a day), 0% in series [1] (oral 4 mg a day), 0% in series [1] (oral 6 mg a day) and 20% in series [1] (oral 8 mg a day). Further, the “Vomiting (incidence)” value in series [1] (oral 2 mg a day) is listed as 40%; in series [1] (oral 4 mg a day) it was 20%; in series [1] (oral 6 mg a day), 0%; in series [1] (oral 8 mg a day) it was 20%. In addition, the “minimum effective dose for nausea” value in series [1] (setting [2]) is given as 4 mg a day. The “optimal dose for nausea and vomiting” value in series [1] (setting [2]) was determined as 6 mg a day. The Cmax (as a rule, the peak of the concentration-time curve) at 1 day was 4 to 6 ng/mL in “clinical” (4 mg) and 6 to 9 ng/mL in the series “clinical” (6 mg).
